Key:
Experiment in all cases: relative viability (nuclei count vs DMSO), 5 days (fraction); higher = more cells survive
Dinaciclib + Palbociclib = compound: CCc1cnn2c(NCc3ccc[n+]([O-])c3)cc(N3CCCC[C@H]3CCO)nc12 [Dinaciclib] + CC(=O)c1c(C)c2cnc(Nc3ccc(N4CCNCC4)cn3)nc2n(C2CCCC2)c1=O [Palbociclib] (partner 0.5 µM)
In short: (§1)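 Lung cancer cell lines were pin-tool dosed in 1536-well plates on the day after seeding, with either a lone drug or a fixed anchor-drug dose plus five library-drug doses (not always all listed) in √10 steps. Nuclei were counted on 4× images after 5 days. Relative viability is the ratio of treated-well to vehicle-well nuclei counts, with each value a median of duplicate plates.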

Dinaciclib + Lapatinib = compound: CCc1cnn2c(NCc3ccc[n+]([O-])c3)cc(N3CCCC[C@H]3CCO)nc12 [Dinaciclib] + CS(=O)(=O)CCNCc1ccc(-c2ccc3ncnc(Nc4ccc(OCc5cccc(F)c5)c(Cl)c4)c3c2)o1 [Lapatinib] (partner 2 µM)
In short: as §1

Dinaciclib + Phenformin = compound: CCc1cnn2c(NCc3ccc[n+]([O-])c3)cc(N3CCCC[C@H]3CCO)nc12 [Dinaciclib] + N=C(N)NC(=N)NCCc1ccccc1 [Phenformin] (partner 250 µM)
In short: as §1

Dinaciclib + Pemetrexed = compound: CCc1cnn2c(NCc3ccc[n+]([O-])c3)cc(N3CCCC[C@H]3CCO)nc12 [Dinaciclib] + Nc1nc2[nH]cc(CCc3ccc(C(=O)N[C@@H](CCC(=O)O)C(=O)O)cc3)c2c(=O)[nH]1 [Pemetrexed] (partner 0.2 µM)
In short: as §1

Dinaciclib + Olaparib = compound: CCc1cnn2c(NCc3ccc[n+]([O-])c3)cc(N3CCCC[C@H]3CCO)nc12 [Dinaciclib] + O=C(c1cc(Cc2n[nH]c(=O)c3ccccc23)ccc1F)N1CCN(C(=O)C2CC2)CC1 [Olaparib] (partner 8 µM)
In short: as §1

Row | Cell Line | relative viability (Dinaciclib + Palbociclib; first compound 0.009487 µM) | relative viability (Dinaciclib + Palbociclib; first compound 0.03 µM) | relative viability (Dinaciclib + Palbociclib; first compound 0.09487 µM) | relative viability (Dinaciclib + Palbociclib; first compound 0.3 µM) | relative viability (Dinaciclib + Lapatinib; first compound 0.009487 µM) | relative viability (Dinaciclib + Lapatinib; first compound 0.03 µM) | relative viability (Dinaciclib + Lapatinib; first compound 0.09487 µM) | relative viability (Dinaciclib + Lapatinib; first compound 0.3 µM) | relative viability (Dinaciclib + Phenformin; first compound 0.009487 µM) | relative viability (Dinaciclib + Phenformin; first compound 0.03 µM) | relative viability (Dinaciclib + Phenformin; first compound 0.09487 µM) | relative viability (Dinaciclib + Phenformin; first compound 0.3 µM) | relative viability (Dinaciclib + Pemetrexed; first compound 0.009487 µM) | relative viability (Dinaciclib + Pemetrexed; first compound 0.03 µM) | relative viability (Dinaciclib + Pemetrexed; first compound 0.09487 µM) | relative viability (Dinaciclib + Pemetrexed; first compound 0.3 µM) | relative viability (Dinaciclib + Olaparib; first compound 0.009487 µM) | relative viability (Dinaciclib + Olaparib; first compound 0.03 µM) | relative viability (Dinaciclib + Olaparib; first compound 0.09487 µM) | relative viability (Dinaciclib + Olaparib; first compound 0.3 µM)
1 | NCI-H1651 | 0.519 | 0.383 | 0.148 | 0.0571 | 0.685 | 0.142 | 0.0637 | 0.0602 | 0.26 | 0.219 | 0.0746 | 0.0547 | 0.596 | 0.51 | 0.112 | 0.0533 | 0.215 | 0.202 | 0.106 | 0.059
2 | NCI-H1666 | 0.672 | 0.442 | 0.6 | 0.541 | 0.319 | 0.19 | 0.182 | 0.212 | 0.461 | 0.34 | 0.4 | 0.347 | 0.933 | 0.399 | 0.504 | 0.491 | 0.774 | 0.553 | 0.484 | 0.488
3 | NCI-H1734 | 0.26 | 0.135 | 0.122 | 0.126 | 0.72 | 0.158 | 0.134 | 0.143 | 0.318 | 0.14 | 0.113 | 0.115 | 0.417 | 0.147 | 0.149 | 0.136 | 0.468 | 0.117 | 0.113 | 0.12
4 | NCI-H1755 | 0.423 | 0.316 | 0.223 | 0.238 | 1.05 | 0.829 | 0.163 | 0.184 | 0.545 | 0.405 | 0.224 | 0.218 | 0.397 | 0.272 | 0.204 | 0.261 | 0.865 | 0.284 | 0.206 | 0.215
5 | NCI-H1792 | 0.677 | 0.365 | 0.217 | 0.152 | 0.848 | 0.808 | 0.0608 | 0.0733 | 0.237 | 0.184 | 0.0541 | 0.075 | 0.561 | 0.14 | 0.0501 | 0.0374 | 0.425 | 0.185 | 0.0516 | 0.0374
6 | NCI-H1793 | 0.251 | 0.168 | 0.131 | 0.135 | 0.389 | 0.112 | 0.18 | 0.147 | 0.374 | 0.235 | 0.115 | 0.119 | 0.63 | 0.139 | 0.142 | 0.13 | 0.64 | 0.139 | 0.119 | 0.153
7 | NCI-H1915 | 0.474 | 0.121 | 0.125 | 0.113 | 0.715 | 0.134 | 0.102 | 0.111 | 0.295 | 0.149 | 0.13 | 0.133 | 0.471 | 0.439 | 0.11 | 0.0872 | 0.202 | 0.108 | 0.112 | 0.0974
8 | NCI-H1944 | 0.39 | 0.13 | 0.147 | 0.123 | 0.936 | 0.169 | 0.143 | 0.147 | 0.184 | 0.117 | 0.121 | 0.13 | 0.712 | 0.119 | 0.14 | 0.136 | 0.395 | 0.126 | 0.182 | 0.108
9 | NCI-H1975 | 0.578 | 0.188 | 0.102 | 0.105 | 0.561 | 0.129 | 0.107 | 0.133 | 0.364 | 0.153 | 0.113 | 0.1 | 0.275 | 0.288 | 0.146 | 0.16 | 0.702 | 0.26 | 0.151 | 0.114
10 | NCI-H1993 | 0.602 | 0.36 | 0.506 | 0.433 | 0.869 | 0.45 | – | 0.723 | 0.466 | 0.581 | 0.594 | 0.565 | 0.592 | 0.452 | 0.484 | 0.427 | 1.12 | 0.755 | 0.371 | 0.424
11 | NCI-H2009 | 0.243 | 0.0729 | 0.0659 | 0.057 | 0.493 | 0.108 | 0.101 | 0.0913 | 0.463 | 0.159 | 0.11 | 0.105 | 0.977 | 0.459 | 0.0817 | 0.0842 | 0.584 | 0.254 | 0.0848 | 0.0797
12 | NCI-H2023 | 0.301 | 0.0599 | 0.0471 | 0.063 | 0.817 | 0.0669 | 0.0655 | 0.0585 | 0.384 | 0.0797 | 0.0696 | 0.0629 | 0.165 | 0.0899 | 0.0697 | 0.0581 | 0.29 | 0.0582 | 0.0542 | 0.0574
13 | NCI-H2085 | 0.514 | 0.503 | 0.22 | 0.211 | 0.712 | 0.238 | 0.249 | 0.26 | 0.72 | 0.304 | 0.232 | 0.202 | 0.916 | 0.279 | 0.211 | 0.217 | 0.838 | 0.321 | 0.257 | 0.263
14 | NCI-H2087 | 0.22 | 0.086 | 0.0942 | 0.0781 | 0.828 | 0.168 | 0.15 | 0.136 | 0.588 | 0.112 | 0.118 | 0.107 | 0.687 | 0.109 | 0.106 | 0.101 | 0.639 | 0.0883 | 0.0953 | 0.112
15 | NCI-H2126 | 0.333 | 0.3 | 0.207 | 0.198 | 0.784 | 0.354 | 0.204 | 0.231 | 0.443 | 0.258 | 0.221 | 0.21 | 0.695 | 0.495 | 0.198 | 0.192 | 0.89 | 0.449 | 0.186 | 0.169
16 | NCI-H2170 | 0.387 | 0.122 | 0.103 | 0.117 | 0.273 | 0.197 | 0.186 | 0.175 | 0.415 | 0.133 | 0.119 | 0.152 | 0.292 | 0.133 | 0.125 | 0.119 | 0.429 | 0.11 | 0.0975 | 0.113
17 | NCI-H2228 | 0.651 | 0.115 | 0.0872 | 0.0982 | 0.764 | 0.112 | 0.0806 | 0.11 | 0.256 | 0.11 | 0.0988 | 0.103 | 0.309 | 0.152 | 0.0897 | 0.0862 | 0.793 | 0.181 | 0.101 | 0.143
18 | NCI-H2347 | 0.506 | 0.321 | 0.21 | 0.212 | 0.959 | 0.637 | 0.214 | 0.259 | 0.468 | 0.131 | 0.193 | 0.209 | 0.459 | 0.319 | 0.228 | 0.224 | 0.523 | 0.241 | 0.216 | 0.209
19 | NCI-H2405 | 0.542 | 0.22 | 0.199 | 0.188 | 0.957 | 0.197 | 0.207 | 0.183 | 0.417 | 0.253 | 0.223 | 0.186 | 0.803 | 0.247 | 0.213 | 0.209 | 0.654 | 0.242 | 0.225 | 0.23
20 | NCI-H3122 | 0.175 | 0.108 | 0.0876 | 0.0895 | 1.01 | 0.185 | 0.147 | 0.169 | 0.172 | 0.101 | 0.103 | 0.106 | 0.245 | 0.106 | 0.0981 | 0.0956 | 0.579 | 0.0996 | 0.0974 | 0.0928
21 | PC-3 [JPC-3] | 0.535 | 0.489 | 0.365 | 0.29 | 0.431 | 0.419 | 0.365 | 0.23 | 0.492 | 0.476 | 0.326 | 0.204 | 1.12 | 0.53 | 0.289 | 0.285 | 1.09 | 0.57 | 0.321 | 0.288
22 | PC-14 | 0.215 | 0.0424 | 0.0361 | 0.0423 | 0.305 | 0.221 | 0.106 | 0.0778 | 0.279 | 0.0631 | 0.0459 | 0.0379 | 0.111 | 0.0682 | 0.0557 | 0.0571 | 0.143 | 0.0629 | 0.0502 | 0.0532
23 | RERF-LC-KJ | 0.907 | 0.216 | 0.139 | 0.157 | 0.958 | 0.563 | 0.151 | 0.128 | 0.35 | 0.223 | 0.224 | 0.185 | 0.489 | 0.161 | 0.126 | 0.121 | 0.466 | 0.166 | 0.155 | 0.154
24 | SK-LU-1 | 0.393 | 0.229 | 0.17 | 0.165 | 0.717 | 0.178 | 0.129 | 0.13 | 0.394 | 0.11 | 0.133 | 0.129 | 0.97 | 0.226 | 0.229 | 0.185 | 0.381 | 0.173 | 0.165 | 0.16
25 | SK-MES-1 | 0.327 | 0.179 | 0.18 | 0.154 | 0.5 | 0.355 | 0.16 | 0.151 | 0.533 | 0.171 | 0.147 | 0.153 | 0.799 | 0.192 | 0.179 | 0.168 | 0.333 | 0.16 | 0.139 | 0.139
26 | SW 1573 | 0.218 | 0.0747 | 0.0634 | 0.0773 | 1.25 | 0.575 | 0.0951 | 0.0867 | 0.303 | 0.0685 | 0.077 | 0.0659 | 0.345 | 0.0723 | 0.07 | 0.0635 | 0.224 | 0.0736 | 0.062 | 0.0659
27 | UMC-11 | 0.29 | 0.173 | 0.177 | 0.167 | 0.442 | 0.179 | 0.143 | 0.169 | 0.214 | 0.197 | 0.192 | 0.185 | 0.411 | 0.18 | 0.189 | 0.146 | 0.176 | 0.157 | 0.146 | 0.165

Reference: the supplement of paper PMC10307832
